In article PMC3914206:

Experiments:
panel of 442 kinases [1] = molecular target: T1, panel of 442 kinases (Homo sapiens, UniProt P51813); format: binding; set-up: KINOMEscan: ABL1(F317L)-phosphorylated / KINOMEscan: ABL1(H396P)-nonphosphorylated / KINOMEscan: ABL1(H396P)-phosphorylated / KINOMEscan: ABL1(M351T)-phosphorylated / KINOMEscan: ABL1(T315I)-phosphorylated / KINOMEscan: ABL1-nonphosphorylated / KINOMEscan: ABL1-phosphorylated / KINOMEscan: ACVR2A / KINOMEscan: ACVR2B / KINOMEscan: ADCK3 / KINOMEscan: ADCK4 / KINOMEscan: AKT1 / KINOMEscan: AKT3 / KINOMEscan: ALK / KINOMEscan: ARK5 / KINOMEscan: AURKA / KINOMEscan: AURKC / KINOMEscan: BIKE / KINOMEscan: BMPR1A / KINOMEscan: BMPR1B / KINOMEscan: BMX / KINOMEscan: BRK / KINOMEscan: BRSK1 / KINOMEscan: BRSK2 / KINOMEscan: CAMK1 / KINOMEscan: CAMK1D / KINOMEscan: CAMK1G / KINOMEscan: CAMK2A / KINOMEscan: CAMK2B / KINOMEscan: AAK1 / KINOMEscan: CAMK2D / KINOMEscan: CAMK2G / KINOMEscan: ABL1(F317I)-nonphosphorylated / KINOMEscan: ABL1(F317I)-phosphorylated / KINOMEscan: ABL1(F317L)-nonphosphorylated: unit: % Ctrl; conditions: Compound Concentration 10 µM
T1 construct: purchased KINOMEscan
T1 sequence (P51813 1-675): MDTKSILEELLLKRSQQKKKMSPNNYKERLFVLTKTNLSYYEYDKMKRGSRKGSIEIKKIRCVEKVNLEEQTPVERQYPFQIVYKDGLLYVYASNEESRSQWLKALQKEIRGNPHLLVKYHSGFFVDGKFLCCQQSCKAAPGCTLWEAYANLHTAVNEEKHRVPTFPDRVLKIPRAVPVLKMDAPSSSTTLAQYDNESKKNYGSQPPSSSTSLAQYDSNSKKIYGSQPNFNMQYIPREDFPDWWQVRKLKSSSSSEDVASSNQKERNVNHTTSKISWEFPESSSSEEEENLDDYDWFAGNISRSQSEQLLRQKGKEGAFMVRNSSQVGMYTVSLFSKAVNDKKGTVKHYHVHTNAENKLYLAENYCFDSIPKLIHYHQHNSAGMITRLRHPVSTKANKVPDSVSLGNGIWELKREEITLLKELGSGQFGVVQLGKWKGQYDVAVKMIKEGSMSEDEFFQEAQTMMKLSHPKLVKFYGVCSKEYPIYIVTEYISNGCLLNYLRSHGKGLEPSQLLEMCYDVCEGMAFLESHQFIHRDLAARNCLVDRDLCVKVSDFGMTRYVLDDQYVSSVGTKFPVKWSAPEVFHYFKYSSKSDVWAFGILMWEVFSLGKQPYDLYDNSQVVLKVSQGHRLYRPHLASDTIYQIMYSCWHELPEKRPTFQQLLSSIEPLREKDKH
Text: (§1) We assessed the selectivity of members of this scaffold using the KINOMEscan methodology across a near comprehensive panel of 442 kinases [[18,27]].

panel of 442 kinases [2] = molecular target: T2, panel of 442 kinases (Homo sapiens, UniProt Q15139); format: binding; set-up: KINOMEscan: ABL1(F317L)-phosphorylated / KINOMEscan: ABL1(H396P)-nonphosphorylated / KINOMEscan: ABL1(H396P)-phosphorylated / KINOMEscan: ABL1(M351T)-phosphorylated / KINOMEscan: ABL1(T315I)-phosphorylated / KINOMEscan: ABL1-nonphosphorylated / KINOMEscan: ABL1-phosphorylated / KINOMEscan: ACVR2A / KINOMEscan: ACVR2B / KINOMEscan: ADCK3 / KINOMEscan: ADCK4 / KINOMEscan: AKT1 / KINOMEscan: AKT3 / KINOMEscan: ALK / KINOMEscan: ARK5 / KINOMEscan: AURKA / KINOMEscan: AURKC / KINOMEscan: BIKE / KINOMEscan: BMPR1A / KINOMEscan: BMPR1B / KINOMEscan: BMX / KINOMEscan: BRK / KINOMEscan: BRSK1 / KINOMEscan: BRSK2 / KINOMEscan: CAMK1 / KINOMEscan: CAMK1D / KINOMEscan: CAMK1G / KINOMEscan: CAMK2A / KINOMEscan: CAMK2B / KINOMEscan: AAK1 / KINOMEscan: CAMK2D / KINOMEscan: CAMK2G / KINOMEscan: ABL1(F317I)-nonphosphorylated / KINOMEscan: ABL1(F317I)-phosphorylated / KINOMEscan: ABL1(F317L)-nonphosphorylated: unit: % Ctrl; conditions: Compound Concentration 10 µM
T2 construct: purchased KINOMEscan
T2 sequence (Q15139 1-912): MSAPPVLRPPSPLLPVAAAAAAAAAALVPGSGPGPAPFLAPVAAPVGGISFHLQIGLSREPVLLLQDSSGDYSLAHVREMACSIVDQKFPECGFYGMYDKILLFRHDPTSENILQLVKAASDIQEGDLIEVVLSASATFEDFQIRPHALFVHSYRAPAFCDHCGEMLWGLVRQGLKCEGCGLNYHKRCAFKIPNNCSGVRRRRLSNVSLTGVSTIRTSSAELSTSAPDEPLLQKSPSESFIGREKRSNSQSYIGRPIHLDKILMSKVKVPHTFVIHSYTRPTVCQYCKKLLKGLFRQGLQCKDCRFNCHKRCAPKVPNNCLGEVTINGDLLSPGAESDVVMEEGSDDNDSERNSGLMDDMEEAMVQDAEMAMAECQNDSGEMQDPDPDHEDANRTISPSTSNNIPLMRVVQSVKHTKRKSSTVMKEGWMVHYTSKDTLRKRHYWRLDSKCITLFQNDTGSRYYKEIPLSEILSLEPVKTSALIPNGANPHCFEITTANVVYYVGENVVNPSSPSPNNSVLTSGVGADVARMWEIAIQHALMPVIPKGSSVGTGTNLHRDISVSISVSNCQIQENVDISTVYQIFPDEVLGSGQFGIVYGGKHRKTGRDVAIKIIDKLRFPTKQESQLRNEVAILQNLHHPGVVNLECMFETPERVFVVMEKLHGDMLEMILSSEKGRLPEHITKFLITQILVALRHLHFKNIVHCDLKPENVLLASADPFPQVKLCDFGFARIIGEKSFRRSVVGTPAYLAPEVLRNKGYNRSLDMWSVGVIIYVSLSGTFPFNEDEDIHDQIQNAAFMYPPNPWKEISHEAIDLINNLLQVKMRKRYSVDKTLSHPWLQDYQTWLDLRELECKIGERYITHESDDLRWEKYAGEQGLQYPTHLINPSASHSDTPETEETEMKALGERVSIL
Text: as §1

Structure (SMILES)	KINOMEscan: BMX (panel of 442 kinases [1])	KINOMEscan: PRKD1 (panel of 442 kinases [2])
COc1cc(C(=O)N2CCC(N3CCN(C)CC3)CC2)ccc1Nc1ncc2c(n1)N(C)c1ccccc1C(=O)N2C [15 (LRRK2-IN-1)]	87	28
COc1cc(C(=O)N2CCC(N3CCN(C)CC3)CC2)ccc1Nc1ncc2c(n1)N1CCc3cccc(c31)C(=O)N2C [Compound 24]	71	21
COc1cc(C(=O)N2CCC(N3CCN(C)CC3)CC2)ccc1Nc1ncc2c(n1)N(C1CCCC1)c1ccccc1C(=O)N2C [Compound 25, 11-cyclopentyl-2-((2-methoxy-4-(4-(4-methylpiperazin-1-yl)piperidine-1-carbonyl)phenyl)amino)-5-methyl-5H-benzo[e]pyrimido[5,4-b][1,4]diazepin-6(11H)-one]	91	100
CCOc1cc(C(=O)N2CCC(N3CCN(C)CC3)CC2)ccc1Nc1ncc2c(n1)N(C1CCCC1)c1ccccc1C(=O)N2C [Compound 26]	100	100
